Experimental findings from US20080242649A1, “New Combination 665” (priority 2007, published 2008) are described below.

Assay [1] relates to methacholine-induced bronchoconstriction. Put plainly: Lung function in anaesthetized guinea-pigs, methacholine challenge. It counts as in vivo, Dunkin-Hartley guinea pig. The procedure: (§1) Evaluation of Lung Function in Anaesthetized Guinea-Pigs
(§2) Male Dunkin-Hartley guinea pigs (300-600 g) were weighed and dosed with vehicle (0.05M phosphate, 0.1% Tween 80, 0.6% saline, pH 6) or compound via the intratracheal route under recoverable gaseous anaesthesia (5% halothane in oxygen). Animals were dosed with compound or vehicle two hours prior to the administration of histamine or methacholine.
(§3) Guinea pigs were anaesthetized with pentobarbitone (1 mL/kg of 60 mg/mL solution i.p.) approximately 30 minutes prior to the first bronchoconstrictor administration. The trachea was cannulated and the animal ventilated using a constant volume respiratory pump (Harvard Rodent Ventilator model 683) at a rate of 60 breath/min and a tidal volume of 5 ml/kg. A jugular vein was cannulated for the administration of histamine, methacholine or maintenance anaesthetic (0.1 mL of pentobarbitone solution, 60 mg/mL, as required).
(§4) The animals were transferred to a Flexivent System (SCIREQ, Montreal, Canada) in order to measure airway resistance. The animals were ventilated (quasi-sinusoidal ventilation pattern) at 60 breaths/min at a tidal volume of 5 mL/kg. A positive end expiratory pressure of 2-3 cmH2O was applied. Respiratory resistance was measured using the Flexivent “snapshot” facility (1 second duration, 1 Hz frequency). Once stable baseline resistance value had been obtained the animals were given histamine or methacholine in ascending doses (0.5, 1, 2, 3 and 5 μg/kg, i.v.) at approximately 4-minute intervals via the jugular catheter. After each administration of bronchoconstrictor the peak resistance value was recorded. Guinea pigs were euthanized with approximately 1.0 mL pentobarbitone sodium (Euthatal) intravenously after the completion of the lung function measurements. Percentage bronchoprotection produced by a compound was calculated at each dose of brochoconstrictor as follows:
(§5) Where % change Rveh is the mean of the maximum percentage change in airway resistance in the vehicle treated group. The results reported were measured after 5 μg/kg histamine or methacholine and were expressed as percentage bronchoprotection (mean ±s.e.mean).

The test system of assay [2] is histamine-induced bronchoconstriction. Put plainly: Lung function in anaesthetized guinea-pigs, histamine challenge. It counts as in vivo, Dunkin-Hartley guinea pig. The procedure:
as §1, §2, §3, §4, §5

The test system of another assay is guinea pig trachea. Put plainly: Bronchodilator onset in guinea pig isolated tracheal ring contracted with methacholine. The note with it: roflumilast 1 μM alone. The method, then: Evaluation of Bronchodilator Activity in the Guinea Pig Isolated Tracheal Ring Preparation
Guinea pigs (300-500 g) were killed by cervical dislocation and the trachea was isolated. The trachea was cut into segments 2-3 cartilage rings in width and suspended in 10 ml organ baths in modified Krebs' solution (mM; NaCl, 90; NaHCO3, 45; KCl, 5; MgSO4.7H2O, 0.5; Na2HPO4.2H2O, 1; CaCl2, 2.25; glucose, 10; pH 7.4) gassed with 5% CO2, 95% […] at 37° C.). The tracheal rings were attached to an isometric force transducer for the measurement of isometric tension. The tissues were washed and a force of 1 g was applied to each tissue. The rings were contracted with methacholine (1 μM). Once the contraction had reached a plateau, vehicle (0.01% DMSO in distilled H2O), compound A (3 nM), roflumilast (1 μM) or a combination of compound A (3 nM) and roflumilast (1 μM) was added and the tissue left until the response had reached a plateau. Data were collected using the Chart 4 software (ADInstruments, Charlgrove, UK). The time to 90% of the maximum effect of the bronchodilator (onset time) was measured and expressed in min (mean ±s.e.mean).

Assay [3] concerns LPS-induced TNFα production. Put plainly: Inhibition of LPS-induced TNFα production in human PBMCs. The format is cell-based. The note with it: for inhibition at 0.03 µM: Homo sapiens, PBMC. The method, then: Inhibition of Lipopolysacchamide (LPS)-Induced TNFα Production in Human Peripheral Blood Mononuclear Cells
The cells were then incubated with LPS (1 μg/mL) for 4 hours at 37° C. to induce TNFα production. At the end of the incubation period, the plates were centrifuged (300 g, 10 minutes) and 100 μL of the culture supernatant was analysed to quantify the TNFα released using a Fluorescence-linked immunosorbance assay (FLISA) assay kit (R&D Systems). Fluorescence levels were read on an FMAT plate reader. Inhibition curves were fitted using a 4-parameter logistic equation in a non-linear curve fitting routine and activity was expressed as pIC50 (mean ±s.e.mean).

The test system of assay [4] is LPS-induced intra-alveolar neutrophilia. Put plainly: Intra-alveolar neutrophil migration after intratracheal LPS challenge in the CRL:CD rat. The format is in vivo. The procedure: Evaluation of Compound Activity on Intra-Alveolar Neutrophil Migration after Intratracheal Challenge with Lipopolysacharride (LPS) in the CRL:CD Rat
LPS challenge in CRL:CD rats causes an influx of neutrophils into the lungs. Under recoverable gaseous anaesthesia (5% isoflorane in oxygen), rats were dosed via the intratracheal route with vehicle (0.05M phosphate, 0.1% Tween 80, 0.6% saline, pH 6), or compound 30 min before challenge with an intratracheal dose of 10 μg/kg LPS.
The rats (250-400 g) were euthanized 4 hr after LPS challenge with 1 mL pentobarbitone sodium. A tracheotomy was performed and a cannula inserted. The airway was then lavaged using 3 mL Isoton at room temperature. The Isoton (BeckmanCoulter, High Wycombe, UK) was left in the airway for 10 seconds before being removed. The bronchio-alveolar lavage (BAL) fluid containing inflammatory cells was placed into a 15 mL centrifuge tube and kept on ice. This process was repeated three times. An aliquot of BAL fluid was removed and the inflammatory cells were counted on Sysmex (Sysmex UK, Milton Keynes). Neutrophils were expressed in millions/animal (mean ±s.e.mean).

Where two headings read alike, the source gives them in different places.

In assay [1] (tiotropium bromide 0.03 pg/kg intratracheal, methacholine 5 μg/kg, vehicle 1898±211%), `C[N+]1(C)[C@@H]2C[C@@H](OC(=O)C(O)(c3cccs3)c3cccs3)C[C@H]1[C@@H]1O[C@@H]12` [tiotropium bromide, reference compound] came in with an increase in resistance of 1656±269%. Besides, the “inhibition of methacholine-induced bronchoconstriction” value in assay [1] (tiotropium bromide intratracheal 2 h before, methacholine 5 μg/kg i.v.) came out at 13%.

In general, inhibition refers to the percentage by which the read-out fell short of the control. As to `O=C(Nc1c(Cl)cncc1Cl)c1ccc(OC(F)F)c(OCC2CC2)c1` [Roflumilast, 3-(cyclopropylmethoxy)-N-(3,5-dichloro-4-pyridinyl)-4-(difluoromethoxy)benzamide, reference compound], in assay [2] (roflumilast 1 mg/kg intratracheal 2 h before, histamine 5 μg/kg i.v.), the “inhibition of histamine-induced bronchoconstriction” value turned out to be 35%. In addition, in assay [2] (roflumilast 1 mg/kg intratracheal, histamine 5 μg/kg, vehicle 1100±161%), the increase in bronchoconstriction came to 695±177%. In the assay with guinea pig trachea, the “onset time (time to 90% of the maximum effect)” value is 26 ± 1.4 min. The inhibition at 0.03 µM amounted to 70 ± 4.1% in assay [3] (roflumilast 30 nM alone, PBMCs, LPS 1 μg/mL, read-out: inhibition of LPS-induced TNFα production) and 92 ± 0.4% in assay [3] (roflumilast 30 nM in the presence of 30 nM compound A, read-out: maximum inhibition of TNFα production). For the same molecule, the “maximum inhibition of TNFα production” value in assay [3] (roflumilast 30 nM in the presence of 3 nM compound A) amounted to 82±2.3%.

Turning to `CNC(=O)c1cc(Cl)c(OC(C)(C)C(=O)O)cc1OC[C@@H](O)CN1CCC2(CC1)Cc1cc(Cl)ccc1O2` [Compound W, 2-{2-Chloro-5-{[(2S)-3-(5-chloro-1′H,3H-spiro[1-benzofuran-2,4′-piperidin]-1′-yl)-2-hydroxypropyl]oxy}-4-[(methylamino)carbonyl]phenoxy}-2-methylpropanoic acid], the inhibition of neutrophilia in assay [4] (Compound W 3 ng/kg intratracheal) stood at 56%. Besides, the “neutrophils in BAL” value in assay [4] (Compound W 3 ng/kg, vehicle/LPS 11±1.8) came out at 6.3±1.1 million/animal.

In assay [4] (budesonide 0.1 μg/kg intratracheal 30 min prior to LPS), `CCCC1O[C@@H]2C[C@H]3[C@@H]4CCC5=CC(=O)C=C[C@]5(C)[C@H]4[C@@H](O)C[C@]3(C)[C@]2(C(=O)CO)O1` (some centres unmarked) [Budesonide, reference compound] showed an inhibition of neutrophilia of 51%. For the same molecule, the “neutrophils in BAL” value in assay [4] (budesonide 0.1 μg/kg intratracheal, vehicle/LPS 14±1.6) is 7.1±0.77 million/animal.

`CC(=O)Nc1ccc(O)cc1OC[C@@](C)(O)CNC1CCN(Cc2ccc(Cl)cc2)CC1` [Compound X, N-{2-[((2S)-3-{[1-(4-chlorobenzyl)piperidin-4-yl]amino}-2-hydroxy-2-methylpropyl)oxy]-4-hydroxyphenyl}acetamide] displayed an inhibition of neutrophilia in assay [4] (Compound X 30 μg/kg intratracheal) of 30%. In assay [4] (Compound X 30 μg/kg, vehicle/LPS 12±1.7), the “neutrophils in BAL” value was 8.5±0.75 million/animal.
